Molecular target: T1, human parathyroid cell Ca^2+ receptor (hPCaR) (Homo sapiens, UniProt P41180)
T1 construct: expressed in transfected cells
T1 sequence (P41180 20-1078): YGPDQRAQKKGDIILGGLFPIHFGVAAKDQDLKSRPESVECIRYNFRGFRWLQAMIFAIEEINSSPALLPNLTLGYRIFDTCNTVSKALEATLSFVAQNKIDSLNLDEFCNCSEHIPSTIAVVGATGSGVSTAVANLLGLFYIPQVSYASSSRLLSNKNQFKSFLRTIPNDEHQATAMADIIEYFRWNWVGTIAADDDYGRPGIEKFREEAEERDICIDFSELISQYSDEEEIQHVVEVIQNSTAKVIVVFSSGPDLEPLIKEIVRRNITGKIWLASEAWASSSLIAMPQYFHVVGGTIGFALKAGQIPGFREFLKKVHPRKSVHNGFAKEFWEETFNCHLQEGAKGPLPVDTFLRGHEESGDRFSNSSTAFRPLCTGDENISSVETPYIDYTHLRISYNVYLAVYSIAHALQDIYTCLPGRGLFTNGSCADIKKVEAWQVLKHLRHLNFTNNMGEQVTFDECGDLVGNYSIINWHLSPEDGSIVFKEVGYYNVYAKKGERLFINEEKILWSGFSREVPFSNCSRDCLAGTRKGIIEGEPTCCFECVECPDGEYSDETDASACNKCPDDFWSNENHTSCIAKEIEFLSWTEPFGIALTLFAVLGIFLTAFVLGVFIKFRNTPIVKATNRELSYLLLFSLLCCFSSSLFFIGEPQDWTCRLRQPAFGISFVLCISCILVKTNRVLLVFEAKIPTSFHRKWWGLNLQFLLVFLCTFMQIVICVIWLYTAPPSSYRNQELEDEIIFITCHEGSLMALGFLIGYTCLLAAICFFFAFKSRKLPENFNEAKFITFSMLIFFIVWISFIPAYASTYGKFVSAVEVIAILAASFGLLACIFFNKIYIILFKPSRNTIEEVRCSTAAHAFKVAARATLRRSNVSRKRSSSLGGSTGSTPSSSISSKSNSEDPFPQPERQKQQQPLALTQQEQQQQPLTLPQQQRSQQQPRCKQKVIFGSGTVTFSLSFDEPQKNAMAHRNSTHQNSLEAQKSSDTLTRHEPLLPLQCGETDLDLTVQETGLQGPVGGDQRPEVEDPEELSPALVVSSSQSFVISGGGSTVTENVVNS
Assay: [Ca2+]i measurement with fluo-3 in HEK 293 4.0-7 cells stably transfected with hPCaR
Assay type: cell-based
Settings: fluo-3 fluorescence (485/530 nm), effect on [Ca^2+]i
Summary of the method: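 HEK 293 cells stably expressing human parathyroid Ca2+ receptor (clone 4.0-7), loaded with 2 μM fluo-3 AM for 30 min at 37 °C in parathyroid cell buffer (pH 7.45) with 1 mM CaCl2 and 0.5% BSA. After compound addition, intracellular Ca2+ followed by fluorescence at 485 nm excitation/530 nm emission.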

Row | Structure (SMILES) | EC50 [µM]
1 | COc1ccc(CN[C@H](C)c2ccccc2)cc1-c1cnccn1 [Example 238, (1R)-N-((4-(methyloxy)-3-(2-pyrazinyl)phenyl)methyl)-1-phenylethanamine] | ≤ 10
2 | Cc1ccc([C@@H](C)NCc2cccc(-c3ncnc4c3ncn4C)c2)cc1 [Example 241, (1R)-1-(4-methylphenyl)-N-((3-(9-methyl-9H-purin-6-yl)phenyl)methyl)ethanamine] | ≤ 10
3 | CC(=O)Nc1ccc(-c2cccc(CN[C@H](C)c3ccccc3)c2)cn1 [Example 250, N-(5-(3-((((1R)-1-phenylethyl)amino)methyl)phenyl)-2-pyridinyl)acetamide] | ≤ 10
4 | C[C@@H](NCc1ccc(F)c(-c2ccc(F)cc2)c1)c1ccccc1 [Example 251, (1R)-N-((4′,6-difluoro-1,1′-biphenyl-3-yl)methyl)-1-phenylethanamine] | ≤ 10
5 | COc1ccccc1-c1cc(CN[C@H](C)c2ccccc2)ccc1OC [Example 253, (1R)-N-((2′,6-bis(methyloxy)-1,1′-biphenyl-3-yl)methyl)-1-phenylethanamine] | ≤ 10
6 | COc1ccc(CN[C@H](C)c2ccccc2)cc1-c1ccc2ocnc2c1 [Example 264, (1R)-N-((3-(1,3-benzoxazol-5-yl)-4-(methyloxy)phenyl)methyl)-1phenylethanamine] | ≤ 10
7 | C[C@@H](NCc1ccc(C(F)(F)F)c(-c2ccc(C(F)(F)F)cc2)c1)c1ccccc1 [Example 314, (1R)-N-((4′,6-bis(trifluoromethyl)-1,1′-biphenyl-3-yl)methyl)-1-phenylethanamine] | ≤ 10
8 | COc1ccc(-c2cc(CN[C@H](C)c3ccccc3)ccc2O)cc1 [Example 391, 4′-(methyloxy)-5-((((1R)-1-phenylethyl)amino)methyl)-1,1′-biphenyl-2-ol] | ≤ 10
9 | C[C@@H](NCc1ccc(Cl)c(-c2cccnc2)c1)c1ccccc1 [Example 434, (1R)-N-((4-chloro-3-(3-pyridinyl)phenyl)methyl)-1-phenylethanamine] | ≤ 10
10 | C[C@@H](NCc1ccc(Cl)c(-c2cccnc2)c1)c1cccc2ccccc12 [Example 435, (1R)-N-((4-chloro-3-(3-pyridinyl)phenyl)methyl)-1-(1-naphthalenyl)ethanamine] | ≤ 10
11 | COc1cccc(-c2cc(CN[C@H](C)c3ccccc3)ccc2OC)c1 [Example 449, (1R)-N-((3′,6-bis(methyloxy)-1,1′-biphenyl-3-yl)methyl)-1-phenylethanamine] | ≤ 10
12 | CC[C@@H](NCc1ccc(OC)c(-c2ccc(OC)cc2)c1)c1ccccc1 [Example 450, (1R)-N-((4′,6-bis(methyloxy)-1,1′-biphenyl-3-yl)methyl)-1-phenyl-1-propanamine] | ≤ 10
13 | Cc1ccc(CN[C@H](C)c2ccccc2)cc1-c1cccnc1 [Example 451, (1R)-N-((4-methyl-3-(3-pyridinyl)phenyl)methyl)-1-phenylethanamine] | ≤ 10
14 | Cc1noc(-c2cccc(CN[C@H](C)c3ccccc3)c2)n1 [Example 453, (1R)-N-((3-(3-methyl-1,2,4-oxadiazol-5-yl)phenyl)methyl)-1-phenylethanamine] | ≤ 10
15 | C[C@@H](NCc1cccc(-c2cncc(C(N)=O)c2)c1)c1cccc2ccccc12 [Example 460, 5-(3-((((1R)-1-(1-naphthalenyl)ethyl)amino)methyl)phenyl)-3-pyridinecarboxamide] | ≤ 10
16 | C[C@@H](NCc1cccc(-c2cncc(C(N)=O)c2)c1)c1ccc2ccccc2c1 [Example 461, 5-(3-((((1R)-1-(2-naphthalenyl)ethyl)amino)methyl)phenyl)-3-pyridinecarboxamide] | ≤ 10
17 | COc1ccc(-c2cc(CN[C@H](C)c3ccccc3)ccc2F)cc1 [Example 465, (1R)-N-((6-fluoro-4′-(methyloxy)-1,1′-biphenyl-3-yl)methyl)-1-phenylethanamine] | ≤ 10

Row | Structure (SMILES) | EC50 [µM]
18 | COc1ccc(CN[C@H](C)c2cccc3ccccc23)cc1-c1ccc(C(=O)N(C)C)cc1 [N,N-dimethyl-2′-(methyloxy)-5′-((((1R)-1-(1-naphthalenyl)ethyl)amino)methyl)-1,1′-biphenyl-4-carboxamide] | ≤ 10
19 | COc1cccc([C@@H](C)NCc2ccc(OC)c(-c3ccc(C(=O)N(C)C)cc3)c2)c1 [N,N-dimethyl-2′-(methyloxy)-5′-((((1R)-1-(3-(methyloxy)phenyl)ethyl)amino)methyl)-1,1′-biphenyl-4-carboxamide] | ≤ 10
20 | COc1ccc(CN[C@H](C)c2ccccc2)cc1-c1ccc(C(=O)N(C)C)cc1 [N,N-dimethyl-2′-(methyloxy)-5′-((((1R)-1-phenylethyl)amino)methyl)-1,1′-biphenyl-4-carboxamide] | ≤ 10
21 | COc1ccc(CN[C@H](C)c2ccccc2)cc1-c1ccc(N(C)C)nc1 [N,N-dimethyl-5-(2-(methyloxy)-5-((((1R)-1-phenylethyl)amino)methyl)phenyl)-2-pyridinamine] | ≤ 10
22 | CC(=O)Nc1cccc(-c2cccc(CN[C@H](C)c3cccc4ccccc34)c2)c1 [N-(3′-((((1R)-1-(1-naphthalenyl)ethyl)amino)methyl)-1,1′-biphenyl-3-yl)acetamide] | ≤ 10
23 | COc1cccc([C@@H](C)NCc2cccc(-c3cccc(NC(C)=O)c3)c2)c1 [N-(3′-((((1R)-1-(3-(methyloxy)phenyl)ethyl)amino)methyl)-1,1′-biphenyl-3-yl)acetamide] | ≤ 10
24 | CC(=O)Nc1cccc(-c2cccc(CN[C@H](C)c3ccccc3)c2)c1 [N-(3′-((((1R)-1-phenylethyl)amino)methyl)-1,1′-biphenyl-3-yl)acetamide] | ≤ 10
25 | COc1ccc(-c2cc(CN[C@H](C)c3cccc4ccccc34)ccc2NS(C)(=O)=O)cc1 [N-(4′-(methyloxy)-5-((((1R)-1-(1-naphthalenyl)ethyl)amino)methyl)-1,1′-biphenyl-2-yl)methanesulfonamide] | ≤ 10
26 | COc1ccc(-c2cc(CN[C@H](C)c3cccc(OC)c3)ccc2NS(C)(=O)=O)cc1 [N-(4′-(methyloxy)-5-((((1R)-1-(3-(methyloxy)phenyl)ethyl)amino)methyl)-1,1′-biphenyl-2-yl)methanesulfonamide] | ≤ 10
27 | COc1ccc(-c2cc(CN[C@H](C)c3ccccc3)ccc2NS(C)(=O)=O)cc1 [N-(4′-(methyloxy)-5-((((1R)-1-phenylethyl)amino)methyl)-1,1′-biphenyl-2-yl)methanesulfonamide] | ≤ 10
28 | CC(=O)Nc1ccc(-c2cccc(CN[C@H](C)c3cccc4ccccc34)c2)cn1 [N-(5-(3-((((1R)-1-(1-naphthalenyl)ethyl)amino)methyl)phenyl)-2-pyridinyl)acetamide] | ≤ 10
29 | COc1cccc([C@@H](C)NCc2cccc(-c3ccc(NC(C)=O)nc3)c2)c1 [N-(5-(3-((((1R)-1-(3-(methyloxy)phenyl)ethyl)amino)methyl)phenyl)-2-pyridinyl)acetamide] | ≤ 10
30 | CCN(CC)CCCOc1ccc(-c2cc(CN[C@H](C)c3cccc4ccccc34)ccc2OC)cn1 [N-((3-(6-((3-(diethylamino)propyl)oxy)-3-pyridinyl)-4-(methyloxy)phenyl)methyl)-N-((1R)-1-(1-naphthalenyl)ethyl)amine] | ≤ 10
31 | CCN(CC)CCCOc1ccc(-c2cc(CN[C@H](C)c3cccc(OC)c3)ccc2OC)cn1 [N-((3-(6-((3-(diethylamino)propyl)oxy)-3-pyridinyl)-4-(methyloxy)phenyl)methyl)-N-((1R)-1-(3-(methyloxy)phenyl)ethyl)amine] | ≤ 10
32 | COc1ccc(CNC(C)c2cccc(OC(F)(F)F)c2)cc1-c1ccc(C(F)(F)F)cc1 (stereo not shown) [N-((6-(methyloxy)-4′-(trifluoromethyl)-1,1′-biphenyl-3-yl)methyl)-1-(3-((trifluoromethyl)oxy)phenyl)ethanamine] | ≤ 10
33 | COc1ccc(CNC(C)c2cccc(C)c2)cc1-c1ccc(C(F)(F)F)cc1 (stereo not shown) [N-((6-(methyloxy)-4′-(trifluoromethyl)-1,1′-biphenyl-3-yl)methyl)-1-(3-methylphenyl)ethanamine] | ≤ 10
34 | CCNC(=O)Nc1ccc(CN[C@H](C)c2cccc3ccccc23)cc1-c1ccc(OC)cc1 [N-ethyl-N′-(4′-(methyloxy)-5-((((1R)-1-(1-naphthalenyl)ethyl)amino)methyl)-1,1′-biphenyl-2-yl)urea] | ≤ 10

Source: patent US6908935B2, “Calcium receptor modulating agents” (Amgen Inc., priority 2002, dated 2005)
